In patent publication US20200405697A1, “Antitumor Agent” (Taiho Pharmaceutical Co., Ltd, priority 2017, published 2020):

Legend:
[1] = molecular target: T1, human RNR (histidine tagged human M1 and human M2 proteins) (Homo sapiens, UniProt P23921); assay: Human RNR inhibition effect (dCDP formation from CDP); assay type: biochemical; conditions: 10 μM CDP, 37° C. for 30 minutes, read-out: RNR inhibitory activity IC50
T1 construct: made in house; host or cells: Escherichia coli
T1 sequence (P23921 1-792): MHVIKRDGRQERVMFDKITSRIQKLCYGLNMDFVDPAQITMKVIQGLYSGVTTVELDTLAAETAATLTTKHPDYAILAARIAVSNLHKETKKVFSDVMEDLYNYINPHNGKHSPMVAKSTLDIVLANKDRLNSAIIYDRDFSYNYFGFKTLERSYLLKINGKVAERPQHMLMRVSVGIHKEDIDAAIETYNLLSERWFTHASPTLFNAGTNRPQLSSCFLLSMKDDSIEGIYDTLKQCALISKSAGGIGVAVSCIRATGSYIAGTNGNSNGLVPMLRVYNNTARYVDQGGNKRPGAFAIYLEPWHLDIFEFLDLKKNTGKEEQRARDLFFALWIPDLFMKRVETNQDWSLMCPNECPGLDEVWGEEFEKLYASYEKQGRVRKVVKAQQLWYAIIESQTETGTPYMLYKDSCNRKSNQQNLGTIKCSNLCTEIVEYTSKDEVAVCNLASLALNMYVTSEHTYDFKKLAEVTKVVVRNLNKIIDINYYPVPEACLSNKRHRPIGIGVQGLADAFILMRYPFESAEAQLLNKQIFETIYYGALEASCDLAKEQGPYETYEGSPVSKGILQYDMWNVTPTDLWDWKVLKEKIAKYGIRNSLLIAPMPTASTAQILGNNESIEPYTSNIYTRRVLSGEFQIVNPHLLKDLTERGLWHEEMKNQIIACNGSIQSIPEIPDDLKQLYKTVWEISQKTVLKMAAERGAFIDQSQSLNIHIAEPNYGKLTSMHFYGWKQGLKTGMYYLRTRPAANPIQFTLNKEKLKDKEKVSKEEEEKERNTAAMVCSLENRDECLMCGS
How it was run: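 His-tagged human M1 (isoform 1) and N-terminal 59-aa-truncated M2 (isoform 2), E. coli-expressed, Ni-purified, preincubated 20 min with compound (1% DMSO). Reaction with 10 μM CDP, 2 mM ATP, 0.24 mM NADPH, 6 mM DTT, 4 mM Mg acetate, 100 mM KCl, 50 mM HEPES pH 7.2, 30 min at 37° C. dCDP formed quantified by reverse-phase HPLC after heat stop.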

[2] = tested on: HCT116 (Human large intestine cancer cell line); assay: Effect of combination of sulfonamide compound and other antitumor agent (CellTiter-Glo, combination index): HCT116; assay type: cell-based
Experimental: (§1) Each cell line was seeded at 90 L/well to a 96-well culture plate (Thermo Fisher Scientific, Inc.) according to the above tables. The cell-seeded plate was cultured in an incubator set to 37° C. and 500 CO2. On the day following seeding, varying concentrations of the sulfonamide compound and the other antitumor agent were added in combination to the cells. […] The serial dilutions of each compound, or DW was added at 5μL/well to the plate such that each compound and DW, or the sulfonamide compound and the other antitumor agent were combined. […] The plate after the addition was cultured at 37° C. for 3 days under 5% CO2 conditions.
(§2) Three days later, CellTiter-Glo(R) 2.0 Reagent (Promega Corporation) was added at 100 μL/well, and the amount of luminescence was measured using a plate reader EnSpire(R) Multimode Plate Reader (PerkinElmer Co., Ltd.).
(§3) An average value from 3 wells was calculated as to each drug condition from the obtained data, and cell survival rate normalized against control wells supplemented with the vehicle (DW) was calculated. A Fa (fractional inhibition) value was calculated by subtracting the cell survival rate from 1.

[3] = tested on: CFPAC-1 (Human pancreatic cancer cell line); assay: Effect of combination of sulfonamide compound and other antitumor agent (CellTiter-Glo, combination index): CFPAC-1;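 note: cells exposed to both agents together for 3 days, viability read by luminescence, normalized to vehicle-treated control wells, mean of triplicate wells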
Experimental: as §1, §2, §3

[4] = Example Compound 1 341 nM + Prexasertib 7.14 nM, molar ratio 1:0.02093
[5] = Example Compound 1 512 nM + Prexasertib 10.7 nM, molar ratio 1:0.02093
[6] = Example Compound 1 768 nM + AZD6738 508 nM, molar ratio 1:0.6621
[7] = Example Compound 1 768 nM + Prexasertib 16.1 nM, molar ratio 1:0.02093
[8] = Example Compound 1 1150 nM + AZD6738 761 nM, molar ratio 1:0.6621
[9] = Example Compound 1 225 nM + Prexasertib 1.89 nM, molar ratio 1:0.008406
[10] = Example Compound 1 338 nM + AZD6738 925 nM, molar ratio 1:2.738
[11] = Example Compound 1 338 nM + Prexasertib 2.84 nM, molar ratio 1:0.008406
[12] = Example Compound 1 338 nM + SCH900776 253 nM, molar ratio 1:0.7487
[13] = Example Compound 1 507 nM + AZD6738 1390 nM, molar ratio 1:2.738
[14] = Example Compound 1 507 nM + Prexasertib 4.26 nM, molar ratio 1:0.008406
[15] = Example Compound 1 507 nM + SCH900776 380 nM, molar ratio 1:0.7487
[16] = Example Compound 1 760 nM + AZD6738 2080 nM, molar ratio 1:2.738
[17] = Example Compound 1 760 nM + Gemcitabine 5.28 nM, molar ratio 1:0.006950
[18] = Example Compound 1 760 nM + SCH900776 569 nM, molar ratio 1:0.7487

Cc1ccc(F)c([C@@H](C)[C@H](NS(=O)(=O)c2ccc(Br)cc2C(N)=O)c2n[nH]c(=O)o2)c1C [Example 1, 5-bromo-2-(N-((1 S,2R)-2-(6-fluoro-2,3-dimethylphenyl)-1-(5-oxo-4,5-dihydro-1,3,4-oxadiazol-2-yl)propyl)sulfamoyl)benzamide]
IC50 [1]: 0.06 µM
CI value [2, 4]: 0.451
Fa value [2, 4]: 0.6993
CI value [2, 5]: 0.243
Fa value [2, 5]: 0.9038
CI value [2, 6]: 0.264
Fa value [2, 6]: 0.8782
CI value [2, 7]: 0.197
Fa value [2, 7]: 0.9579
CI value [2, 8]: 0.218
Fa value [2, 8]: 0.9579
CI value [3, 9]: 0.825
Fa value [3, 9]: 0.2319
CI value [3, 10]: 0.484
Fa value [3, 10]: 0.4791
CI value [3, 11]: 0.580
Fa value [3, 11]: 0.6056
CI value [3, 12]: 0.496
Fa value [3, 12]: 0.4162
CI value [3, 13]: 0.356
Fa value [3, 13]: 0.7266
CI value [3, 14]: 0.633
Fa value [3, 14]: 0.7542
CI value [3, 15]: 0.369
Fa value [3, 15]: 0.6944
CI value [3, 16]: 0.427
Fa value [3, 16]: 0.7884
CI value [3, 17]: 0.790
Fa value [3, 17]: 0.6416
CI value [3, 18]: 0.472
Fa value [3, 18]: 0.7479
